Assay results: patent publication US8030494B2, “Optical recording material” (Adeka Corporation, priority 2006, dated 2011)

Assay: Evaluation of light resistance (absorbance retention of spin-coated film after irradiation)
Assay type: physicochemical
Conditions: film spin-coated from 1% by mass 2,2,3,3-tetrafluoropropanol solution on polycarbonate plate; 55000 lux light for 100 hours; at λmax before irradiation
Procedure: The compounds obtained in Preparation Examples 1 to 8 and comparative compound No. 2 were evaluated for light resistance as follows. Each of the compounds was dissolved in 2,2,3,3-tetrafluoropropanol to prepare a 1% by mass solution. The solution was applied to a 20 mm by 20 mm polycarbonate plate by spin coating at 2000 rpm for 60 seconds to prepare a specimen. The specimen was irradiated with 55000 lux light for 100 hours. The UV absorption spectra measured before and after the irradiation were compared to calculate an absorbance retention at the λmax of the UV absorption spectrum before the irradiation.

## C[N+]1=C(/C=C/c2ccccc2)C(C)(Cc2ccccc2)c2c1ccc1ccccc21 (stereo not shown) [comparative compound No. 2]
  Absorbance Retention (%): 0%
